Values joined by “and” are separate entries in the source; they are usually repeats but may differ in a detail not shown here. Identical values can stand only once. Like-named read-outs stand apart in the source and are kept apart here.
How the values were obtained:
[1] = test system: subjects with insomnia disorder; assay: Phase 1 crossover polysomnography (PSG) study in subjects with insomnia disorder; type: in vivo, human
[2] = Change from Baseline, 10 mg oral
[3] = Compound (1D) versus placebo, 10 mg oral
[4] = Treatment Period 1 Night 1, 10 mg oral
[5] = Treatment Period 1 Night 2, 10 mg oral
[6] = Treatment Period 2 Night 1, 10 mg oral
[7] = Treatment Period 2 Night 2, 10 mg oral
[8] = Treatment Period Mean, 10 mg oral

In the case of `O=C(O)c1nc2ccccc2n([C@H]2C[C@H]3CCC[C@@H](C2)N3C2CC3CCCC(C3)C2)c1=O` (stereo partly drawn) [Compound (1D)], the overall sleep effect (rats; 30 mg/kg/day oral) was “significant sleep-enhancing effects”, the “tachyphylaxis over the seven day period” value (rats; 30 mg/kg/day oral for 7 days) was “minimal tachyphylaxis” and the “percentage of time spent in wakefulness” value (rats; 30 mg/kg/day oral, Day 1, 1 hour block at 4 hours after dosing (FIG. 5A)) was “about 52%”. The “percentage of time spent in NREM sleep” value (rats; 30 mg/kg/day oral, Day 1, 1 hour block at 4 hours after dosing (FIG. 5C)) was “about 41%”, the “percentage of time spent in NREM sleep” value (rats; 30 mg/kg/day oral, Day 1, 1 hour block at 5 hours after dosing (FIG. 5C)) was roughly 54% and the “percentage of time spent in REM sleep” value (rats; 30 mg/kg/day oral, Day 1, 1 hour block at 7 hours after dosing (FIG. 5B)) was “about 2.5%”. The “total amount of wakefulness” value (rats; 30 mg/kg/day oral, Day 1, 3 hour block, 3 to 6 hours after dosing (FIG. 6A)) was “about 47%”, the “total amount of NREM sleep” value (rats; 30 mg/kg/day oral, Day 1, 3 hour block, 3 to 6 hours after dosing (FIG. 6C)) was “about 46%” and the “effect on percentage of time spent in REM sleep” value (“effect on percentage” for short) (rats; 30 mg/kg/day oral, Day 1, 3 hour blocks (FIG. 6B)) was “no significant effects”. For the same compound, the “effect on percentage” value (rats; 30 mg/kg/day oral, Day 4 (FIG. 7B, 8B)) was “no significant effects”, the “total amount of wakefulness” value (rats; 30 mg/kg/day oral, Day 4, 3 to 6 hours after dosing (FIG. 8A)) was “about 55%” and the “total amount of NREM sleep” value (rats; 30 mg/kg/day oral, Day 4, 3 to 6 hours after dosing (FIG. 8C)) was “about 41%”. The “percentage of time spent in NREM sleep” value (rats; 30 mg/kg/day oral, Day 4, 1 hour block at 4 hours after dosing (FIG. 7C)) was “about 42%”, the “effect on percentage” value (rats; 30 mg/kg/day oral, Day 7 (FIG. 9B, 10B)) was “no significant effects” and the “percentage of time spent in wakefulness versus vehicle” value (rats; 30 mg/kg/day oral, Day 7, lights-out period (FIG. 9A)) was “decreasing tendency”. The “percentage of time spent in NREM sleep versus vehicle” value (rats; 30 mg/kg/day oral, Day 7, lights-out period (FIG. 9C)) was “increased tendency”, the “effect on time spent in REM sleep” value (rats; Day 8 (no dosing) after 30 mg/kg/day for 7 days (FIG. 11B)) was “no effect” and the “percentage of time spent in wakefulness versus vehicle” value (rats; Day 8 (no dosing) after 30 mg/kg/day for 7 days, at 27, 35, and 46 hours (FIG. 11A)) was “significantly increased”. For the same compound, the “percentage of time spent in NREM sleep versus vehicle” value (rats; Day 8 (no dosing) after 30 mg/kg/day for 7 days, at 27, 35, and 46 hours (FIG. 11C)) was “significantly decreased”, the “Latency to Persistent Sleep (LPS) LSM (STDE)” value [1, 2] was −32.33 (4.580) Minutes and the “Latency to Persistent Sleep (LPS) Maximum” value (shortened to “Latency … (LPS) Maximum”) [1, 2] was 8.75 min. The “Latency to Persistent Sleep (LPS) Mean (SD)” value (“Latency … (LPS) Mean (SD)” below) [1, 2] was −29.918 (23.3435) Minutes, the “Latency to Persistent Sleep (LPS) Median” value [1, 2] was -27.250 min and the “Latency to Persistent Sleep (LPS) Minimum” value (“Latency … (LPS) Minimum” below) [1, 2] was -87.75 min. For the same compound, the “Total Sleep Time (TST) LSM (STDE)” value [1, 2] was 69.44 (12.870) Minutes, the “Total Sleep Time (TST) Maximum” value [1, 2] was 198.00 min and the “Total Sleep Time (TST) Mean (SD)” value [1, 2] was 69.955 (49.2950) Minutes. The “Total Sleep Time (TST) Median” value [1, 2] was 73.750 min, the “Total Sleep Time (TST) Minimum” value [1, 2] was -59.80 min and the “Wake After Sleep Onset (WASO) LSM (STDE)” value [1, 2] was −50.04 (5.990) Minutes. The “Wake After Sleep Onset (WASO) Maximum” value [1, 2] was 29.50 min, the “Wake After Sleep Onset (WASO) Mean (SD)” value [1, 2] was −50.545 (42.1544) Minutes and the “Wake After Sleep Onset (WASO) Median” value [1, 2] was -47.250 min. For the same compound, the “Wake After Sleep Onset (WASO) Minimum” value [1, 2] was -185.50 min, the “Latency to Persistent Sleep (LPS) Drug Effect Difference (LSM (STDE))” value [1, 3] was −17.44 (6.292) Minutes and the “Total Sleep Time (TST) Drug Effect Difference (LSM (STDE))” value [1, 3] was 56.69 (17.665) Minutes. For the same compound, the “Wake After Sleep Onset (WASO) Drug Effect Difference (LSM (STDE))” value [1, 3] was −38.46 (8.222) Minutes, the “Latency to Persistent Sleep LSM Change from Baseline (STDE)” value ([1]; Table 4 summary, 10 mg oral) was −32.3 (4.6) min and the “Latency to Persistent Sleep Treatment Period Mean (SD)” value ([1]; Table 4 summary, 10 mg oral) was 18.8 (15.6)) min. The “Latency to Persistent Sleep LSM Effect Difference (STDE)” value ([1]; Table 4 summary, versus placebo, 10 mg oral) was −17.4 (6.3) min, the “Wake After Sleep Onset LSM Change from Baseline (STDE)” value ([1]; Table 6 summary, 10 mg oral) was −50.0 (6.0) min and the “Wake After Sleep Onset Treatment Period Mean (SD)” value ([1]; Table 6 summary, 10 mg oral) was 26.1 (16.2) min. The “Wake After Sleep Onset LSM Effect Difference (STDE)” value ([1]; Table 6 summary, versus placebo, 10 mg oral) was −38.5 (8.2) min, the “Total Sleep Time LSM Change from Baseline (STDE)” value ([1]; Table 8 summary, 10 mg oral) was 69.4 (12.9) min and the “Total Sleep Time Treatment Period Mean (SD)” value ([1]; Table 8 summary, 10 mg oral) was 432.0 (35.1) min. For the same compound, the “Total Sleep Time LSM Effect Difference (STDE)” value ([1]; Table 8 summary, versus placebo, 10 mg oral) was 56.7 min. and 56.7 (17.7) min, the “Latency … (LPS) Maximum” value [1, 4] was 58.0 min and the “Latency … (LPS) Mean (SD)” value [1, 4] was 25.68 (15.691) Minutes. The “Latency to Persistent Sleep (LPS) Median” value [1, 4] was 24.50 min, the “Latency … (LPS) Minimum” value [1, 4] was 6.0 min and the “Total Sleep Time (TST) Maximum” value [1, 4] was 469.0 min. For the same compound, the “Total Sleep Time (TST) Mean (SD)” value [1, 4] was 424.00 (32.530) Minutes, the “Total Sleep Time (TST) Median” value [1, 4] was 419.50 min and the “Total Sleep Time (TST) Minimum” value [1, 4] was 358.5 min. The “Wake After Sleep Onset (WASO) Maximum” value [1, 4] was 111.5 min, the “Wake After Sleep Onset (WASO) Mean (SD)” value [1, 4] was 35.95 (29.815) Minutes and the “Wake After Sleep Onset (WASO) Median” value [1, 4] was 29.50 min. The “Wake After Sleep Onset (WASO) Minimum” value [1, 4] was 7.5 min, the “Latency … (LPS) Maximum” value [1, 5] was 105.0 min and the “Latency … (LPS) Mean (SD)” value [1, 5] was 20.73 (29.755) Minutes. The “Latency to Persistent Sleep (LPS) Median” value [1, 5] was 15.00 min, the “Latency … (LPS) Minimum” value [1, 5] was 0.0 min and the “Total Sleep Time (TST) Maximum” value [1, 5] was 459.0 min. For the same compound, the “Total Sleep Time (TST) Mean (SD)” value [1, 5] was 439.82 (19.572) Minutes, the “Total Sleep Time (TST) Median” value [1, 5] was 443.00 min and the “Total Sleep Time (TST) Minimum” value [1, 5] was 387.5 min. The “Wake After Sleep Onset (WASO) Maximum” value [1, 5] was 52.0 min, the “Wake After Sleep Onset (WASO) Mean (SD)” value [1, 5] was 25.68 (12.515) Minutes and the “Wake After Sleep Onset (WASO) Median” value [1, 5] was 25.50 min. The “Wake After Sleep Onset (WASO) Minimum” value [1, 5] was 4.0 min, the “Latency … (LPS) Maximum” value [1, 6] was 46.0 min and the “Latency … (LPS) Mean (SD)” value [1, 6] was 12.75 (14.425) Minutes. The “Latency to Persistent Sleep (LPS) Median” value [1, 6] was 9.00 min, the “Latency … (LPS) Minimum” value [1, 6] was 0.0 min and the “Total Sleep Time (TST) Maximum” value [1, 6] was 458.5 min. The “Total Sleep Time (TST) Mean (SD)” value [1, 6] was 416.88 (101.558) Minutes, the “Total Sleep Time (TST) Median” value [1, 6] was 453.00 min and the “Total Sleep Time (TST) Minimum” value [1, 6] was 166.0 min. For the same compound, the “Wake After Sleep Onset (WASO) Maximum” value [1, 6] was 22.5 min, the “Wake After Sleep Onset (WASO) Mean (SD)” value [1, 6] was 15.63 (4.299) Minutes and the “Wake After Sleep Onset (WASO) Median” value [1, 6] was 15.75 min. For the same compound, the “Wake After Sleep Onset (WASO) Minimum” value [1, 6] was 9.5 min, the “Latency … (LPS) Maximum” value [1, 7] was 29.5 min and the “Latency … (LPS) Mean (SD)” value [1, 7] was 12.50 (9.350) Minutes. The “Latency to Persistent Sleep (LPS) Median” value [1, 7] was 11.50 min, the “Latency … (LPS) Minimum” value [1, 7] was 0.5 min and the “Total Sleep Time (TST) Maximum” value [1, 7] was 459.5 min. For the same compound, the “Total Sleep Time (TST) Mean (SD)” value [1, 7] was 447.50 (8.594) Minutes, the “Total Sleep Time (TST) Median” value [1, 7] was 450.25 min and the “Total Sleep Time (TST) Minimum” value [1, 7] was 436.0 min. The “Wake After Sleep Onset (WASO) Maximum” value [1, 7] was 38.5 min, the “Wake After Sleep Onset (WASO) Mean (SD)” value [1, 7] was 23.44 (8.946) Minutes and the “Wake After Sleep Onset (WASO) Median” value [1, 7] was 22.75 min. For the same compound, the “Wake After Sleep Onset (WASO) Minimum” value [1, 7] was 12.5 min, the “Latency to Persistent Sleep (LPS) LSM (STDE)” value [1, 8] was 18.14 (4.579) Minutes and the “Latency … (LPS) Maximum” value [1, 8] was 70.25 min. The “Latency … (LPS) Mean (SD)” value [1, 8] was 18.750 (15.6310) Minutes, the “Latency to Persistent Sleep (LPS) Median” value [1, 8] was 15.000 min and the “Latency … (LPS) Minimum” value [1, 8] was 2.00 min. The “Total Sleep Time (TST) LSM (STDE)” value [1, 8] was 431.09 (12.869) Minutes, the “Total Sleep Time (TST) Maximum” value [1, 8] was 464.00 min and the “Total Sleep Time (TST) Mean (SD)” value [1, 8] was 432.026 (35.1088) Minutes. For the same compound, the “Total Sleep Time (TST) Median” value [1, 8] was 443.500 min, the “Total Sleep Time (TST) Minimum” value [1, 8] was 309.00 min and the “Wake After Sleep Onset (WASO) LSM (STDE)” value [1, 8] was 25.28 (5.990) Minutes. For the same compound, the “Wake After Sleep Onset (WASO) Maximum” value [1, 8] was 51.75 min, the “Wake After Sleep Onset (WASO) Mean (SD)” value [1, 8] was 26.066 (16.2181) Minutes and the “Wake After Sleep Onset (WASO) Median” value [1, 8] was 22.250 min. For the same compound, the “Wake After Sleep Onset (WASO) Minimum” value [1, 8] was 11.00 min, the “Latency to Persistent Sleep LSM decrease effect” value ([1]; treatment group versus placebo) was 17.4 min and the “Wake After Sleep Onset LSM decrease effect” value ([1]; treatment group versus placebo) was 38.5 min.
